Results as given in US20240082296A1, “TREATMENT OF MUSCLE ATROPHY USING DEXTRAN SULFATE” (TX MEDIC AB, priority 2020, published 2024).

How the values were obtained:
[1] = tested on: human patients suffering from ALS; assay: serum lactate in ALS patients before and after dextran sulfate (Example 1); type: in vivo; settings: 2 mg/kg s.c. once a week; for serum lactate levels: week 0: 1.78±0.59
Text: Using a longitudinal design, this study was aimed to determine the changes of selected serum metabolites in ALS patients before dextran sulfate administration and after different times following the beginning of the treatment. Changes in the measured metabolites indicated the biochemical response of the patient to dextran sulfate that is underpinning potential disease modification and the mechanisms of action of the drug in this ALS patient population.
Dextran sulfate (Tikomed AB, Viken, Sweden, WO 2016/076780) was administered at 2 mg/kg by […] subcutaneous injection once a week for ten weeks to 8 human patients suffering from ALS.
Peripheral venous blood samples were collected from patients before (week 0) and after dextran sulfate administration (week 5 and week 10) after at least 15 minutes of complete rest, using the standard tourniquet procedure, from the antecubital vein into a single VACUETTE® polypropylene tube containing serum separator and clot activator (Greiner-Bio One GmbH, Kremsmunster, Austria). After 30 mins at room temperature (20-25° C.), blood withdrawals were centrifuged at 1,890×g for 10 min to get serum aliquots.
(§1) A serum aliquot of 500 μl was supplemented with 1 ml of HPLC-grade acetonitrile, vortexed for 60 secs, centrifuged at the maximum speed in a top-bench centrifuge to precipitate proteins. Supernatants were washed with large volumes of HPLC-grade chloroform to remove organic solvent, centrifuged and the upper aqueous phases were transferred to different tubes, clearly labeled to identify the sample and stored at −80° C. until analyzed to determine different water-soluble compounds.

ALS patients = assay: serum metabolites by HPLC pre- and post-treatment in ALS patients (Example 3); type: in vivo, human
Text: The objective of this Example was to evaluate the effect of repeated dextran sulfate administration on the concentrations of serum metabolites in serum samples from a cohort of Swedish ALS patients who had participated in the trial entitled ‘A single-centre, open single-arm study where the safety, tolerability and efficacy of subcutaneously administered ILB® will be evaluated in patients with Amyotrophic Lateral Sclerosis’. Using a longitudinal design, this study aimed to determine the changes of selected serum metabolites in each ALS patient before and after weekly dextran sulfate treatment. Changes in the measured metabolites indicate the biochemical response of the patient to dextran sulfate that is underpinning potential disease modification and the mechanisms of action of the drug in this patient population.
After an initial screening visit, patients had five weekly dosing of a single dextran sulfate (ILB®, Tikomed AB, Viken, Sweden, WO 2016/076780) injection of 1.0 mg/kg body weight in saline into the subcutaneous fat of the lower abdomen.
Peripheral venous blood samples were been collected from the patients after at least 15 minutes of complete rest, using the standard tourniquet procedure, from the antecubital vein into a single VACUETTE® polypropylene tube containing serum separator and clot activator (Greiner-Bio One GmbH, Kremsmunster, Austria). After 30 minutes at room temperature, blood withdrawals were centrifuged at 1,890×g for 10 min and the resulting serum samples were stored at −20° C. until analysis.
as §1, with “After defrost, an aliquot” for “A serum aliquot”, “μl of each serum sample” for “μl”, “60 seconds,” for “60 secs,”, “transferred in” for “transferred to”
A second aliquot of about 300 μl of each serum sample was light-protected and then processed to extract fat-soluble antioxidants using a method described in detail elsewhere (Lazzarino et al., Single-step preparation of selected biological fluids for the high performance liquid chromatographic analysis of fat-soluble vitamins and antioxidants. J Chromatogr A. 2017; 1527: 43-52.). Briefly, samples were supplemented with 1 ml of HPLC-grade acetonitrile, vigorously vortexed for 60 s and incubated at 37° C. for 1 h in a water bath under agitation, to allow the full extraction of lipid soluble compounds. Samples were then centrifuged at 20,690×g for 15 min at 4 C to precipitate proteins and the clear supernatants were saved at −80° C. until the HPLC analysis of fat-soluble vitamins and antioxidants.
In deproteinized serum samples, the following water-soluble compounds were separated and quantified by HPLC, according to methods described elsewhere (Tavazzi et al., Simultaneous high performance liquid chromatographic separation of purines, pyrimidines, N-acetylated amino acids, and dicarboxylic acids for the chemical diagnosis of inborn errors of metabolism. Clin Biochem. 2005; 38: 997-1008; Romitelli et al., Comparison of nitrite/nitrate concentration in human plasma and serum samples measured by the enzymatic batch Griess assay, ion-pairing HPLC and ion-trap GC-MS: The importance of a correct removal of proteins in the Griess assay. J Chromatogr B Analyt Technol Biomed Life Sci. 2007; 851: 257-267; Amorini et al., Metabolic profile of amniotic fluid as a biochemical tool to screen for inborn errors of metabolism and fetal anomalies. Mol Cell Biochem. 2012; 359: 205-216): hypoxhantine, xanthine, uric acid, malondialdehyde (MDA), nitrite, nitrate, N-acetylaspartate (NAA), citrulline (CITR), alanine (ALA), and ornithine (ORN). […]

[2] = post- vs pre-treatment, five weekly 1.0 mg/kg s.c.

dextran sulfate
increase of serum lactate levels ([1]; after 5 weeks vs week 0): 29.8%
serum lactate levels ([1]; after 5 weeks, p<0.01): 2.31 ± 1.02 mM
increase of serum lactate levels ([1]; after 10 weeks vs week 0): 70%
serum lactate levels ([1]; after 10 weeks): 3.02 ± 1.59 mM
serum CITR (ALS patients; [2]): ameliorated
serum MDA (ALS patients; [2]): decreased
serum NAA (ALS patients; [2]): Significantly lower
serum ORN/CITR ratio (ALS patients; [2]): ameliorated
serum nitrate (ALS patients; [2]): decreased
serum nitrite+nitrate (ALS patients; [2]): decreased
serum sum of oxypurines (hypoxanthine+xanthine+uric acid) (ALS patients; [2]): decreased
serum uric acid (ALS patients; [2]): decreased
serum α-tocopherol (ALS patients; [2]): ameliorated
serum γ-tocopherol (ALS patients; [2]): ameliorated
circulating values of ALA (ALS patients; post-treatment, equal to controls, significantly lower than pre-treatment): normalized
